Drawing on ChEMBL document CHEMBL1137493, “Synthesis and potent antitumor activity of new arylamino derivatives of nor-beta-lapachone and nor-alpha-lapachone” (Bioorg Med Chem, 2007), this text covers IC50 and EC50 for ten compounds.

The test system of one series is HL-60. The series is described as follows: Cytotoxicity against human HL60 cells after 72 hrs by MTT assay. Type of series: functional, cell-based. The note with it: HL-60, 72 h.
A further series relates to HCT-8. The series is described as follows: Cytotoxicity against human HCT8 cells after 72 hrs by MTT assay. Type of series: functional, cell-based. The note with it: HCT-8, 72 h. (Tetrazolium dyes change colour on reduction, which living cells bring about.)
Another series has as its system MDA-MB-435. The series is described as follows: Cytotoxicity against human MDA-MB-435 cells after 72 hrs by MTT assay. Type of series: functional, cell-based. Particulars: MDA-MB-435, 72 h.
The subject of the next series is SF-295. Put plainly: Cytotoxicity against human SF295 cells after 72 hrs by MTT assay. Type of series: functional, cell-based. The note with it: SF-295, 72 h.
In the next series the test system is B16. Put plainly: Cytotoxicity against mouse B16 cells after 72 hrs by MTT assay. It counts as functional, cell-based. Particulars: B16, 72 h.
Another series concerns PC-3. Put plainly: Cytotoxicity against human PC3 cells after 72 hrs by MTT assay. It counts as cell-based. Particulars: PC-3, 72 h.
A further series relates to L929. The series is described as follows: Cytotoxicity against mouse L929 cells after 72 hrs by MTT assay. It counts as cell-based. Particulars: L929, 72 h.
A short description of series [1]: Toxicity assessed as hemolytic activity against mouse erythrocyte. Type of series: cell-based. The note with it: mouse erythrocytes.

Values after ≈ are worked out from the molar mass of the structure shown.

One may read the IC50 as the point on the concentration scale where inhibition reaches its midpoint. Low values mean inhibition by little substance, high ones a need for much substance. Broadly, the EC50 is the concentration at which the effect is half-maximal. For `Cc1ccc(C)c(NC2C3=C(OC2(C)C)c2ccccc2C(=O)C3=O)c1` (stereo not given), the IC50 with HL-60 turned out to be 1.27 µg/mL (≈ 3.66 µM); in the series on HCT-8, 1.59 µg/mL (≈ 4.58 µM); in the series on MDA-MB-435 it was 0.27 µg/mL (≈ 0.777 µM); with SF-295, 2.08 µg/mL (≈ 5.99 µM); with B16, 3.03 µg/mL (≈ 8.72 µM); with PC-3 it was 0.32 µg/mL (≈ 0.921 µM). The same compound displayed an IC50 in the series on L929 above 5 µg/mL. For the same compound, in series [1], the EC50 was above 200 µg/mL.
Take `CC1(C)OC2=C(C(=O)C(=O)c3ccccc32)C1Nc1ccc(F)cc1` (stereo not given): the IC50 stood at 0.32 µg/mL (≈ 0.949 µM) in the series with HL-60; 0.51 µg/mL (≈ 1.51 µM) in the series on HCT-8; 0.12 µg/mL (≈ 0.356 µM) in the series on MDA-MB-435; 0.59 µg/mL (≈ 1.75 µM) in the series with SF-295; 0.42 µg/mL (≈ 1.24 µM) in the series on B16; 0.31 µg/mL (≈ 0.919 µM) in the series on PC-3. Further, in the series on L929, the IC50 was found to be 0.52 µg/mL (≈ 1.54 µM). Further, the EC50 in series [1] is above 200 µg/mL.
`CC1(C)OC2=C(C(=O)C(=O)c3ccccc32)C1Nc1cccc(Cl)c1` (stereo not given): the IC50 came out at 0.39 µg/mL (≈ 1.1 µM) in the series on HL-60; 0.51 µg/mL (≈ 1.44 µM) in the series with HCT-8; 0.17 µg/mL (≈ 0.48 µM) in the series with MDA-MB-435; 0.36 µg/mL (≈ 1.02 µM) in the series on SF-295; 0.56 µg/mL (≈ 1.58 µM) in the series with B16; 0.49 µg/mL (≈ 1.38 µM) with PC-3. The compound further showed an IC50 in the series with L929 of 1.16 µg/mL (≈ 3.28 µM). The EC50 in series [1] was above 200 µg/mL.
On to `CC1(C)OC2=C(C(=O)C(=O)c3ccccc32)C1Nc1cccc(Br)c1` (stereo not given), for which the IC50 with HL-60 amounted to 0.5 µg/mL (≈ 1.26 µM); with HCT-8 it was 0.7 µg/mL (≈ 1.76 µM); in the series on MDA-MB-435 it was 0.2 µg/mL (≈ 0.502 µM); in the series with SF-295 it was 0.93 µg/mL (≈ 2.34 µM); with B16 it was 0.48 µg/mL (≈ 1.21 µM); in the series with PC-3, 0.46 µg/mL (≈ 1.16 µM). The IC50 in the series on L929 came out at 1.02 µg/mL (≈ 2.56 µM). For the same compound, the EC50 in series [1] is above 200 µg/mL.
As for `CC1(C)OC2=C(C(=O)C(=O)c3ccccc32)C1Nc1cccc([N+](=O)[O-])c1` (stereo not given), the IC50 with HL-60 was determined as 0.33 µg/mL (≈ 0.906 µM); in the series on HCT-8 it was 0.64 µg/mL (≈ 1.76 µM); in the series with MDA-MB-435, 0.23 µg/mL (≈ 0.631 µM); in the series on SF-295 it was 0.5 µg/mL (≈ 1.37 µM); with B16, 0.43 µg/mL (≈ 1.18 µM); in the series with PC-3 it was 0.41 µg/mL (≈ 1.13 µM). Further, it took 0.42 µg/mL (≈ 1.15 µM) to reach half-maximal inhibition with L929 (IC50). In addition, the EC50 in series [1] is above 200 µg/mL.
For `CC1(C)OC2=C(C(=O)C(=O)c3ccccc32)C1Nc1ccccc1` (stereo not given), the IC50 with HL-60 worked out at 0.66 µg/mL (≈ 2.07 µM); in the series on HCT-8 it was 0.99 µg/mL (≈ 3.1 µM); in the series with MDA-MB-435, 0.3 µg/mL (≈ 0.939 µM); with SF-295 it was 0.89 µg/mL (≈ 2.79 µM); in the series with B16, 0.74 µg/mL (≈ 2.32 µM); with PC-3 it was 0.31 µg/mL (≈ 0.971 µM). This compound also had an IC50 in the series with L929 of 2.72 µg/mL (≈ 8.52 µM). In addition, in series [1], the concentration for a half-maximal effect (EC50) is above 200 µg/mL.
Consider `CC1(C)OC2=C(C(=O)c3ccccc3C2=O)C1Nc1ccccc1` (stereo not given), for which the IC50 in the series with HL-60 was 2.99 µg/mL (≈ 9.36 µM); in the series on HCT-8, 1.43 µg/mL (≈ 4.48 µM); in the series on MDA-MB-435, 0.89 µg/mL (≈ 2.79 µM); in the series with SF-295 it was 2.52 µg/mL (≈ 7.89 µM); in the series on B16 it was 1 µg/mL (≈ 3.13 µM); in the series on PC-3, 1.34 µg/mL (≈ 4.2 µM). Moreover, half-maximal inhibition with L929 (IC50) required 3.08 µg/mL (≈ 9.64 µM). Moreover, the EC50 in series [1] was above 200 µg/mL.
Turning to `COc1cccc2c1C(=O)c1c(O)c3c(c(O)c1C2=O)C[C@@](O)(C(=O)CO)C[C@@H]3O[C@H]1C[C@H](N)[C@H](O)[C@H](C)O1` [DOXORUBICIN], the IC50 in the series on HCT-8 stood at 0.04 µg/mL (≈ 0.0736 µM); in the series with SF-295, 0.25 µg/mL (≈ 0.46 µM); in the series on B16 it was 0.03 µg/mL (≈ 0.0552 µM); in the series with PC-3 it was 0.24 µg/mL (≈ 0.442 µM).
With `CC1(C)CCC2=C(O1)c1ccccc1C(=O)C2=O` [LAPACHONE], the half-maximal inhibitory concentration (IC50) in the series with HL-60 is 0.4 µg/mL (≈ 1.65 µM); in the series with HCT-8, 0.2 µg/mL (≈ 0.826 µM); in the series on MDA-MB-435 it was 0.06 µg/mL (≈ 0.248 µM); in the series with SF-295, 0.22 µg/mL (≈ 0.908 µM). The EC50 in series [1] was above 200 µg/mL.
The matching figures for `CC1(C)CC2=C(O1)c1ccccc1C(=O)C2=O` [NOR-BETA-LAPACHONE]: 0.4 µg/mL (≈ 1.75 µM), 0.31 µg/mL (≈ 1.36 µM), 0.07 µg/mL (≈ 0.307 µM), 0.36 µg/mL (≈ 1.58 µM) and above 200 µg/mL.
